Assay results: patent US10844077B2, “Thiazolyl-containing compounds for treating proliferative diseases” (Dana-Farber Cancer Institute, Inc., priority 2014, dated 2020)
Where “and” joins values, the source holds several entries; their conditions need not be identical. Equal values may be shown once.

Experiments:
Type in all cases: cell-based
kinases in BCWM.1 cells [1] = target: kinases in BCWM.1 cells (Homo sapiens, UniProt Q86XP1); details: DGKH; ATP; 1 μM; GF
Protocol: (§1) The cells were harvested and lysed. […] Bound kinases were identified and quantitated by ACTIVX as described in Patricelli et al., Biochemistry, 2007, 46(2): 350-358. The compounds were tested in duplicates against duplicate or quadruplicate control samples.

kinases in BCWM.1 cells [2] = target: kinases in BCWM.1 cells (Homo sapiens, UniProt Q16513); details: PKN2; Lys2; 1 μM, 90 min; GF
Protocol: as §1

kinases in BCWM.1 cells [3] = target: kinases in BCWM.1 cells (Homo sapiens, UniProt P49761); details: CLK3; ATP Loop; 1 μM; GF
Protocol: as §1

kinases in BCWM.1 cells [4] = target: kinases in BCWM.1 cells (Homo sapiens, UniProt P51617); details: IRAK1; Lys2; 1 μM; GF
Protocol: as §1

kinases in BCWM.1 cells [5] = target: kinases in BCWM.1 cells (Homo sapiens, UniProt Q00536)
Protocol: as §1

kinases in BCWM.1 cells [6] = target: kinases in BCWM.1 cells (Homo sapiens, UniProt Q16584); details: MLK3; Lys2; 1 μM; GF
Protocol: as §1

kinases in BCWM.1 cells [7] = target: kinases in BCWM.1 cells (Homo sapiens, UniProt Q16566); details: CaMK4; Lys2; 1 μM; GF
Protocol: as §1

kinases in BCWM.1 cells [8] = target: kinases in BCWM.1 cells (Homo sapiens, UniProt Q15831); details: LKB1; Lys2; 1 μM; GF
Protocol: as §1

kinases in BCWM.1 cells [9] = target: kinases in BCWM.1 cells (Homo sapiens, UniProt Q5TCX8); details: MLK4; Lys2; 1 μM; GF
Protocol: as §1

kinases in BCWM.1 cells [10] = target: kinases in BCWM.1 cells (Homo sapiens, UniProt P49840); details: GSK3A; Lys2; 1 μM; GF
Protocol: as §1

kinases in BCWM.1 cells [11] = target: kinases in BCWM.1 cells (Homo sapiens, UniProt Q9UK32); details: RSK4 domain1; Lys2; 1 μM, 90 min; GF
Protocol: as §1

kinases in BCWM.1 cells [12] = target: kinases in BCWM.1 cells (Homo sapiens, UniProt O75582); details: MSK1 domain1; Lys2; 1 μM; GF
Protocol: as §1

kinases in BCWM.1 cells [13] = target: kinases in BCWM.1 cells (Homo sapiens, UniProt P23743); details: DGKA; ATP; 1 μM; GF
Protocol: as §1

kinases in BCWM.1 cells [14] = target: kinases in BCWM.1 cells (Homo sapiens, UniProt Q13535); details: ATR; ATP; 1 μM; GF
Protocol: as §1

kinases in BCWM.1 cells [15] = target: kinases in BCWM.1 cells (Homo sapiens, UniProt Q13163); details: MAP2K5; Lys2; 1 μM; GF
Protocol: as §1

kinases in BCWM.1 cells [16] = target: kinases in BCWM.1 cells (Homo sapiens, UniProt P51451); details: BLK; Activation Loop; 1 μM; GF
Protocol: as §1

kinases in BCWM.1 cells [17] = target: kinases in BCWM.1 cells (Homo sapiens, UniProt Q9Y616); details: IRAK3; Lys1; 1 μM; GF
Protocol: as §1

kinases in BCWM.1 cells [18] = target: kinases in BCWM.1 cells (Homo sapiens, UniProt O95835); details: LATS1; Lys1; 1 μM; GF
Protocol: as §1

kinases in BCWM.1 cells [19] = target: kinases in BCWM.1 cells (Homo sapiens, UniProt P28482); details: Erk2; Lys2; 1 μM; GF
Protocol: as §1

kinases in BCWM.1 cells [20] = target: kinases in BCWM.1 cells (Homo sapiens, UniProt Q5S007); details: LRRK2; Lys2; 1 μM; GF
Protocol: as §1

kinases in BCWM.1 cells [21] = target: kinases in BCWM.1 cells (Homo sapiens, UniProt Q9Y6E0); details: MST3; Lys2; 1 μM; GF
Protocol: as §1

kinases in BCWM.1 cells [22] = target: kinases in BCWM.1 cells (Homo sapiens, UniProt Q96GD4); details: AurB; Lys1; 1 μM; GF
Protocol: as §1

kinases in BCWM.1 cells [23] = target: kinases in BCWM.1 cells (Homo sapiens, UniProt P07332); details: FES; Lys1; 1 μM; GF
Protocol: as §1

kinases in BCWM.1 cells [24] = target: kinases in BCWM.1 cells (Homo sapiens, UniProt P41240); details: CSK; Activation Loop; 1 μM; GF
Protocol: as §1

kinases in BCWM.1 cells [25] = target: kinases in BCWM.1 cells (Homo sapiens, UniProt Q06187); details: BTK; Activation Loop; 1 μM; GF
Protocol: as §1

kinases in BCWM.1 cells [26] = target: kinases in BCWM.1 cells (Homo sapiens, UniProt Q00535); details: CDK5; Lys2; 1 μM; GF
Protocol: as §1

kinases in BCWM.1 cells [27] = target: kinases in BCWM.1 cells (Homo sapiens, UniProt P49760); details: CLK2; Lys2; 1 μM; GF
Protocol: as §1

kinases in BCWM.1 cells [28] = target: kinases in BCWM.1 cells (Homo sapiens, UniProt Q02156); details: PKCe; Lys2; 1 μM, 90 min; GF
Protocol: as §1

kinases in BCWM.1 cells [29] = target: kinases in BCWM.1 cells (Homo sapiens, UniProt Q13557); details: CaMK2d; Lys1; 1 μM; GF
Protocol: as §1

kinases in BCWM.1 cells [30] = target: kinases in BCWM.1 cells (Homo sapiens, UniProt P50750); details: CDK9; Lys2; 1 μM; GF
Protocol: as §1

kinases in BCWM.1 cells [31] = target: kinases in BCWM.1 cells (Homo sapiens, UniProt Q04759); details: PKCt; ATP Loop; 1 μM, 90 min; GF
Protocol: as §1

Sequence of kinases in BCWM.1 cells (Homo sapiens, UniProt P49840) (P49840 2-483 limits assumed): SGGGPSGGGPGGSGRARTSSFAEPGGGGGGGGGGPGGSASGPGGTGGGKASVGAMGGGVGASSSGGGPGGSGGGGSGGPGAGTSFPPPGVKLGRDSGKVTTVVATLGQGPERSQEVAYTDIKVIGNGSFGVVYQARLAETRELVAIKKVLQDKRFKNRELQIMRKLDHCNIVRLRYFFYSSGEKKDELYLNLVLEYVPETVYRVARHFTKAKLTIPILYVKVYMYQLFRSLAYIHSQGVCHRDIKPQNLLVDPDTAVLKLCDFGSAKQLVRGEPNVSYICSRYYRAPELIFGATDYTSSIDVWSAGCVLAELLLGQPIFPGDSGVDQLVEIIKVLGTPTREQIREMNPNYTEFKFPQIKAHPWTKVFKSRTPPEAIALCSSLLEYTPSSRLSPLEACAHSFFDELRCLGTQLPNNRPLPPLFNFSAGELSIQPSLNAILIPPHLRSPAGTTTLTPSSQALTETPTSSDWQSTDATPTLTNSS
Sequence of kinases in BCWM.1 cells (Homo sapiens, UniProt P51451) (P51451 2-505 limits assumed): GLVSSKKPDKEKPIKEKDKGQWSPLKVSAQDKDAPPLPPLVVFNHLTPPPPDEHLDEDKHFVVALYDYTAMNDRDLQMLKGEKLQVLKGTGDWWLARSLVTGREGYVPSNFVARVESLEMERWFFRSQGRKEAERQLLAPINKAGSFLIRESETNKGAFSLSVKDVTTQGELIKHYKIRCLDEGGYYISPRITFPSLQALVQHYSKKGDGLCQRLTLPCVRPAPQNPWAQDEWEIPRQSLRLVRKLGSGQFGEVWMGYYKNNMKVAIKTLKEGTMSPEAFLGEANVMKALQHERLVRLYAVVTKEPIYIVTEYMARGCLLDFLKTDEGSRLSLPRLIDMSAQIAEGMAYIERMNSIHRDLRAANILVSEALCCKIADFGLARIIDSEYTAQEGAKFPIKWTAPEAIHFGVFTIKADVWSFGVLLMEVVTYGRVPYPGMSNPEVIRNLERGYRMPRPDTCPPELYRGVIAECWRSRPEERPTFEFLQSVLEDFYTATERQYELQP
Sequence of kinases in BCWM.1 cells (Homo sapiens, UniProt Q13557) (Q13557 2-499 limits assumed): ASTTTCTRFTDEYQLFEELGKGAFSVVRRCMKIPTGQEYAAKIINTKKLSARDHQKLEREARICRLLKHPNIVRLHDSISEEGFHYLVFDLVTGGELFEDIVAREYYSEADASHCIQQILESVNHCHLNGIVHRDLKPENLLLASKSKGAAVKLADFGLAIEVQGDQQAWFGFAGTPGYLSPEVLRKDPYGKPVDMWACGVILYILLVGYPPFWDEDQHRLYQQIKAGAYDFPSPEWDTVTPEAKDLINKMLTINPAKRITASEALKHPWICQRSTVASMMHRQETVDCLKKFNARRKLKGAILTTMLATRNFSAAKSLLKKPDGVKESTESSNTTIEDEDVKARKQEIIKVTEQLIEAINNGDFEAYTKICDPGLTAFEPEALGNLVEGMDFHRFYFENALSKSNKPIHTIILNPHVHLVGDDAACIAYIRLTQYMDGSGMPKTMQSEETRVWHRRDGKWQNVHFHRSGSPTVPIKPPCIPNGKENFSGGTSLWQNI
Sequence of kinases in BCWM.1 cells (Homo sapiens, UniProt P28482) (P28482 2-360 limits assumed): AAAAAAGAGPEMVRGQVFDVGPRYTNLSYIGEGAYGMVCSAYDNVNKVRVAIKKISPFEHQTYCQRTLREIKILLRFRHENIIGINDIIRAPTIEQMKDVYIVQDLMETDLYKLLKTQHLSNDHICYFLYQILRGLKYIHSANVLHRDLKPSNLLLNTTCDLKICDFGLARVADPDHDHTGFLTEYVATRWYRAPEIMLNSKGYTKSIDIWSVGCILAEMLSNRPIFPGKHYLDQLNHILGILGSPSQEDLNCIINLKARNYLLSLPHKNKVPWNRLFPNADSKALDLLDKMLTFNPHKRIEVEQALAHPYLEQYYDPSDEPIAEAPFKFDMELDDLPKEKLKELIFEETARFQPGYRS
Sequence of kinases in BCWM.1 cells (Homo sapiens, UniProt Q06187) (Q06187 2-659 limits assumed): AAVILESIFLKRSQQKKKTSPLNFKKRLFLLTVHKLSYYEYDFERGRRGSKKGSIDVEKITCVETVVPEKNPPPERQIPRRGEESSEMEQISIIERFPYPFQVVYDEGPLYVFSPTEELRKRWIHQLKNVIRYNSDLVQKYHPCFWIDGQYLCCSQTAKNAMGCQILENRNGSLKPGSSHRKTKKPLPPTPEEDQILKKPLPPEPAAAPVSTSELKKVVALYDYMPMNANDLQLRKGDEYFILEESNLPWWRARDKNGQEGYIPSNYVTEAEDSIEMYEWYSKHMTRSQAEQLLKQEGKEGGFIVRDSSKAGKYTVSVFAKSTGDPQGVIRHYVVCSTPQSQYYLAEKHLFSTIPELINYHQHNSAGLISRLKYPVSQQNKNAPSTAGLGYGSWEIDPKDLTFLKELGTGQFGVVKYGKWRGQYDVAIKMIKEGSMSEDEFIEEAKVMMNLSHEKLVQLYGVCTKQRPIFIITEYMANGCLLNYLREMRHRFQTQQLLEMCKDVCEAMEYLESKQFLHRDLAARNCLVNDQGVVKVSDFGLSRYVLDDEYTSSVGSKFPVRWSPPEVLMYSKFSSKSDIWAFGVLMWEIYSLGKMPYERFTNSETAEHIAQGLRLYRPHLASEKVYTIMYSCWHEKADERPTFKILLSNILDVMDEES
Sequence of kinases in BCWM.1 cells (Homo sapiens, UniProt P41240) (P41240 2-450 limits assumed): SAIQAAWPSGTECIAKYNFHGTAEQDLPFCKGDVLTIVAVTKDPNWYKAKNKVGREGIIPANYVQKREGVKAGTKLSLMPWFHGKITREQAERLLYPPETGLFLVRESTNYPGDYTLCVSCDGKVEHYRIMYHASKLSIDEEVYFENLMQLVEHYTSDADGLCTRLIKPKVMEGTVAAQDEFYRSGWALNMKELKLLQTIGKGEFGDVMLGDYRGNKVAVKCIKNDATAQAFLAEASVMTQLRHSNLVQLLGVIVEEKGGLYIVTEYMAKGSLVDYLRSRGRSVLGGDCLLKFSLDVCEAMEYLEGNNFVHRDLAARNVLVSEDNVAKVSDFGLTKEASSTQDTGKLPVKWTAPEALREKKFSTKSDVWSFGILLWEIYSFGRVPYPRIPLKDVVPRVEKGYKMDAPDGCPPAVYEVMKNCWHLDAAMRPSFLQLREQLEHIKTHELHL

## CCC(=O)N1CC[C@H](Nc2nccc(Nc3ncc(C(=O)Nc4c(C)cccc4C)s3)n2)C1 [Example I-9]
Kinases in BCWM.1 cells [1]
  % change of MS signal compared to control sample: −21.2% and −12.5%
Kinases in BCWM.1 cells [2]
  % change of MS signal compared to control sample: 13.6%
Kinases in BCWM.1 cells [3]
  % change of MS signal compared to control sample: −19% and −10.3%
Kinases in BCWM.1 cells [4]
  % change of MS signal compared to control sample: −2.6% and −3.2%
Kinases in BCWM.1 cells [5]
  % change of MS signal compared to control sample: 6.5%
Kinases in BCWM.1 cells [6]
  % change of MS signal compared to control sample: 24.1%
Kinases in BCWM.1 cells [7]
  % change of MS signal compared to control sample: −10.3% and −13.1%
Kinases in BCWM.1 cells [8]
  % change of MS signal compared to control sample: −11.2% and −7.4%
Kinases in BCWM.1 cells [9]
  % change of MS signal compared to control sample: −22% and −18.5%
Kinases in BCWM.1 cells [10]
  % change of MS signal compared to control sample: 2.3% and 1.9%
Kinases in BCWM.1 cells [11]
  % change of MS signal compared to control sample: 15.8%
Kinases in BCWM.1 cells [12]
  % change of MS signal compared to control sample: −22.8% and −23.9%
Kinases in BCWM.1 cells [13]
  % change of MS signal compared to control sample: −1.5% and −6.6%
Kinases in BCWM.1 cells [14]
  % change of MS signal compared to control sample: 28.1% and 16.5%
Kinases in BCWM.1 cells [15]
  % change of MS signal compared to control sample: 16.8% and 16.3%
Kinases in BCWM.1 cells [16]
  % change of MS signal compared to control sample: 93.7% and 95.4%
Kinases in BCWM.1 cells [17]
  % change of MS signal compared to control sample: 7.2% and −1.4%
Kinases in BCWM.1 cells [18]
  % change of MS signal compared to control sample: −2.8% and 5.4%
Kinases in BCWM.1 cells [19]
  % change of MS signal compared to control sample: −3.8% and 4%
Kinases in BCWM.1 cells [20]
  % change of MS signal compared to control sample: −26.4% and −21.7%
Kinases in BCWM.1 cells [21]
  % change of MS signal compared to control sample: −1.9% and −1.4%
Kinases in BCWM.1 cells [22]
  % change of MS signal compared to control sample: −20.6% and −21.5%
Kinases in BCWM.1 cells [23]
  % change of MS signal compared to control sample: −11.2% and −3.9%
Kinases in BCWM.1 cells [24]
  % change of MS signal compared to control sample: −6% and 1.5%
Kinases in BCWM.1 cells [25]
  % change of MS signal compared to control sample: 96.7% and 70.7%
Kinases in BCWM.1 cells [26]
  % change of MS signal compared to control sample: −1.1% and 7.7%
Kinases in BCWM.1 cells [27]
  % change of MS signal compared to control sample: −19.3% and −10.6%
Kinases in BCWM.1 cells [28]
  % change of MS signal compared to control sample: −7%
Kinases in BCWM.1 cells [29]
  % change of MS signal compared to control sample: −8.1% and −8.2%
Kinases in BCWM.1 cells [30]
  % change of MS signal compared to control sample: 32.7% and 23.1%

## C=CC(=O)N1CC[C@H](Nc2nccc(Nc3ncc(C(=O)Nc4c(C)cccc4C)s3)n2)C1 [Example I-3]
Kinases in BCWM.1 cells [31]
  % change of MS signal compared to control sample: 23.5%
